Common to all, as to type: in vivo, human
The test system of assay [1] is patients on chronic methadone therapy for pain. Briefly: Piper survey for fatigue in chronic pain patients on methadone, with and without NAC. As to the method:
(§1) 6 patients who have been on chronic methadone therapy for pain treatment and who are also taking NAC (600 mg/day) were studied. Patients were taking a range of methadone doses (30-160 mg/day).
(§2) This is a descriptive case study of 6 patients. A blood sample was obtained and used to measure serum methadone levels was obtained on methadone/NAC therapy. NAC was supplied by the investigator from assayed commercially available supply and pill counts were done to assure patient compliance. The patients were on the same methadone dose for over seven days; this ensures steady state levels of methadone had been achieved. The patients were then be asked to stop taking NAC for 7 days and were asked to return to the clinic for a second blood draw that measured serum methadone levels. Blood was collected in the offices of BAA. Three additional patients were studied, after the results from sera of the initial patients were assayed; these patients had baseline pain and fatigue assessments with the Piper Survey and were subsequently treated with NAC, serum determinations were sent, but have not as yet been completed. Thus patients on methadone were studied with NAC withdrawal (First Group) and NAC added to treatment (second group). The medical chart was reviewed for current medications, including over the counter medications, supplements, and herbal preparations; health conditions and available laboratory evaluations of electrolytes. The patient's age and gender was recorded.
(§3) BAA offices: A 5 ml blood sample will be obtained on methadone/NAC. Blood was drawn prior to a normally timed dose of methadone. The patient was instructed to discontinue taking NAC and returned in 7 days, at the same time, for a blood draw. This was also drawn prior to a normally timed dose of methadone. Patients completed a Piper survey for fatigue and distress on each occasion prior to the blood draw. The Piper score reflects a valid measure of fatigue. Higher numbers for the score are indicative of greater fatigue. Within the Piper survey a pain measure is also recorded. Both pain and fatigue scores were measured at each of the clinical visits one week apart. Trained study personnel completed chart review. Analysis of serum concentrations of methadone was completed at the Bioanalytical Core Lab at the Arizona Health Science Center (Sarver Heart Center, University of Arizona, Tucson).

The test system is the same in assay [2]. Briefly: VAS pain and clinical comments in pain patients in clinical trial, with and without NAC. As to the method: as §1, §2, §3
The subject of assay [3] is Restless Legs Syndrome (RLS) subjects. Kind of assay: Clinical use: relief of Restless Legs Syndrome symptoms. Conditions: clinical observation. As to the method:
The blood levels of these patients measured below detection thresholds (20 ng/ml) and well below the blood levels recorded for pain relief (300 ng/ml). The NAC dose used in the present invention was far less than the 500 mg TID dose used as a supplement in treatment of diseases of inflammation.

The test system of assay [4] is patients with pain / restless legs syndrome. Kind of assay: Case histories: NAC added to oral ketamine (pain diary, patient reports). The conditions noted are these: single patients; Case 1: NAC 25 mg, within 24 hours; Case 2: ketamine 150 mg/day.
Experimental: The patient maintained a diary noting their level of pain with 1 being the lowest and 10 the highest. […] The patient was then administered 25 mg of NAC to be taken in combination with oral ketamine.
Where [5] appears, read: on methadone without NAC (M001-M003 NAC stopped 7 days; M004-M006 baseline before NAC).
[6] abbreviates: cases summarized and a few additional cases.

Entries after “also recorded” stand apart in the source; their conditions may differ.

Regarding `CCC(=O)C(CC(C)N(C)C)(c1ccccc1)c1ccccc1` (stereo not shown) [Mtd, methadone], in assay [1] (setting [5]), the “Fatigue (yes/no)” value is recorded as “Yes”.

In the case of `CC(=O)N[C@@H](CS)C(=O)O` [NAC, N-acetyl-cysteine], the “medication for pain when NAC is added to methadone” value in assay [2] (setting [6]) is given as “reduction in medication for pain”. The opioid reduction result in assay [2] (patient M004, after NAC added to methadone) is “subsequently; 30% opiod”. Besides, the “Comments: change on stopping NAC” value in assay [2] (patients M001-M003 on methadone, NAC stopped 7 days) is reported as “Inc. irritabil; also recorded: Inc.pain/w”. For the same molecule, the “Comments: patient report / clinical course after NAC added” value in assay [2] (patients M004-M006 on methadone, NAC added) is recorded as “Stopped all oxycondone; also recorded: “much less fatigue since starting; also recorded: “I do feel better taking NAC””. Besides, the “fatigue when NAC is added to methadone” value in assay [1] (setting [6]) is listed as “Improvement in fatigue”. The “Fatigue (yes/no)” value was “No” in assay [1] (on methadone with NAC, patients M001-M006); “Yes and No” in assay [1] (setting [5]).

`COc1ccc2c(c1)[C@]13CCCC[C@@H]1[C@H](C2)N(C)CC3` [dextromethorphan]: in assay [3], the “symptoms of Restless Legs Syndrome (RLS)” value is “treats restless legs syndrome”.

Consider `CNC1(c2ccccc2Cl)CCCCC1=O` (stereo not shown) [ketamine], for which the “pain relief (patient report)” value in assay [4] was “noted pain relief”.

Source of the values: patent publication US20080096872A1, “Composition for Treatment of Pain Specification” (priority 2004, published 2008).
